Measurements taken from patent US8367659B2, “Oxazinyl isoflavonoid compounds, medicaments and use” (Marshall Edwards, Inc., priority 2007, dated 2013).
Where two headings read alike, the source gives them in different places.

Columns and labels:
[1] = tested on: TNFα synthesis in RAW 264.7 murine macrophages; experiment: LPS-induced TNFα synthesis in RAW 264.7 murine macrophages; format: cell-based, mouse; details: 10 μM; relative to vehicle alone; FIG. 5
Method: (§1) The mouse macrophage cell line RAW 264.7 was cultured in DMEM supplemented with foetal calf serum (FCS), […] glutamine and 50 U/ml penicillin/streptomycin. Cells were treated with either test compound (in 0.025% DMSO) or vehicle alone, and added one hour before 50 ng/ml LPS. After incubation for 24 h, culture media was collected for PGE2 or TXB2 measurement by ELISA (Cayman Chemical), and TNFα measurement using an ELISA (Becton Dickinson). Test compounds were examined a concentration of 10 μM. […] Consequently, to assess the effect of test compounds on various analytes, cell viability was taken into consideration with the use of the formula: Actual effect of test compound=measured effect−(effect on cell viability×measured effect)

[2] = Free radical scavenging with DPPH; details: for EC50: DPPH, read-out: Free radical scavenging ability EC50
Method: The antioxidant (free radical trapping) activity of test compounds was assessed using the stable free radical compound 2,2-diphenyl-1-picrylhydrazyl (DPPH). A stock solution of DPPH was prepared at a concentration of […] in ethanol and mixed for 10 minutes prior to use. Test compounds at a concentration of 100 μM were reacted with DPPH for, 20 minutes, alter which time the absorbance at 517 nm was determined. Initial screening of was done at 100 μM. The change in absorbance at 517 nm was compared to a reagent blank (DPPH with ethanol alone). […] The IC50 values were estimated as the concentration of test compound that caused a 0.6 change in absorbance (with 1.2 absorbance units representing total scavenging of the DPPH radical).
The antioxidant (free radical trapping) activity of test compounds was assessed using the stable free radical compound 2,2-diphenyl-1-picrylhydrazyl (DPPH). A stock solution of DPPH was prepared […] in ethanol and mixed for 10 minutes prior to use. Initial screening of test compound at a concentration of 100 μM was reacted with DPPH for 20 minutes, after which time the absorbance at 517 nm was determined. The change in absorbance was compared to a reagent blank (DPPH with ethanol alone). […] The IC50 value was estimated as the concentration of test compound that causes a 0.6 change in absorbance (with 1.2 absorbance units representing total scavenging of the DPPH radical).

[3] = target: T1, GAL4-PPARγ fusion protein (Homo sapiens, UniProt P37231); experiment: PPARγ activity in transfected HEK293 cells (beta-lactamase reporter); format: cell-based; details: FIG. 13: 1 μM
T1 construct: host or cells: HEK293 (human embryonic kidney), stably transfected
T1 sequence (P37231 238-503 limits assumed): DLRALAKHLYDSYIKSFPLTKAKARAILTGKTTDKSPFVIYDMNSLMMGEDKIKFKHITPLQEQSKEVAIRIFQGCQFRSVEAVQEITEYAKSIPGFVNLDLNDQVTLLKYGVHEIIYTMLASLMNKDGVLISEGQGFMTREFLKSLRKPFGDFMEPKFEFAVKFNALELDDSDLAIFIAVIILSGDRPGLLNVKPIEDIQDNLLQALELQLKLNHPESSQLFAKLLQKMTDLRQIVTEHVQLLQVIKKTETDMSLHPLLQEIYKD
T1 sequence (P04386 1-147 partner limits assumed): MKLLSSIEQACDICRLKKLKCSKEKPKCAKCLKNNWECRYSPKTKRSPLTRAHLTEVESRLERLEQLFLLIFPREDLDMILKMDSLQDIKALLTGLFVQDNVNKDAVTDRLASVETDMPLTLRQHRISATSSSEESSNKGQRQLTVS
Method: Human HEK293 cells, stably transfected with the PPARγ ligand binding domain fused with the DNA binding domain of the GAL4 protein (GAL4-PPARγ fusion protein), produce beta-lactamase when incubated with PPARγ ligands. Transfected human kidney embryonic cells (Invitrogen Inc., Carlsbad, Calif.) were seeded onto matrigel in 96-well plates and allowed to attach overnight. The following day, vehicle alone (DMSO) or test compound at 1, 5 and 10 μM was added at varying concentrations to cells and incubated for 16-18 hours. Cells were then loaded with a FRET-based fluorescent substrate to assess beta-lactamase activity. Cells were protected from light, and incubated at room temperature for 2 h. Plates were read on a fluorescence plate reader with an excitation wavelength of 409 nm and emission wavelengths of 460 nm and 530 nm. Results were expressed as a ratio of these two wavelengths after the background (cell-free control wells) had been subtracted. PPARγ activity was thus determined by measuring beta-lactamase activity as assessed by a fluorescent product to substrate ratio.

CP70 = experiment: Anti-cancer activity, CP70 ovarian cancer cells (MTT); format: cell-based; details: 120 h, 5 days
HPAC = experiment: Anti-cancer activity, HPAC pancreatic cancer cells (MTT); format: cell-based; details: Homo sapiens, 120 h, 5 days
MM200 = experiment: Anti-cancer activity, MM200 melanoma cells (MTT); format: cell-based; details: 120 h; 5 days, MTT
cancer cell lines = experiment: Anti-cancer activity, cancer cell lines tested as a group (MTT); format: cell-based; details: CP70, HPAC and MM200
[4] = tested on: NO synthesis in RAW 264.7 murine macrophages; experiment: LPS-induced NO synthesis in RAW 264.7 murine macrophages (Griess); format: cell-based, mouse; details: 10 μM; relative to vehicle alone; FIG. 6
Method: as §1, with “Dickinson). Nitrite concentration is a quantitative indicator of NO production and was determined by the Griess Reaction. Briefly, 100 μL of Griess reagent was added to 50 μL of each supernatant in duplicate. The absorbance at 550 nm was measured (Molecular Devices, SpectraMax 250 microplate spectrophotometer, CA, USA), and nitrite concentrations were determined against a standard curve of sodium nitrite. The percentage nitrite inhibition was calculated as: [100−(nitrite concentration of sample/nitrite of vehicle control LPS cells)×100]. Results” for “Dickinson).”

[5] = tested on: NFκB-promoter activity in TNFa-stimulated THP-1 monocyte/macrophages; experiment: NFκB promoter activity in TNFα-stimulated THP-1 cells (beta-lactamase reporter); format: cell-based, human; details: 30 μM; FIG. 19
Method: The assay utilizes a genetically modified THP-1 cell line and GeneBLAzer® beta-lactamase technology (Invitrogen Corp). The human THP-1 monocyte/macrophages contain a stably-transfected beta-lactamase reporter gene under control of the NFκB response element They respond to stimulation with TNF-a, which leads to activation of the NFκB signaling pathway. Co-incubation of cells with TNF-a and test material allows quantitative determination of the ability of test material to inhibit TNFa-stimulated beta-lactamase production. Inflammatory index is calculated as the ratio of beta-lactamase product to beta-lactamase substrate. In brief, genetically modified THP-1 cells were seeded into wells of a 96-well plate (50×10^3 cells/well) in the presence of RPMI 1640 medium (70 μl). TNFα was added to each well (10 μl) to give a final concentration of 7.5 ng/ml. Dialyzed bovine serum was added (10 μl). Compounds dissolved in DMSO (10 μL) were then added (5 wells for each compound). Each plate contained a no-cell control (4 wells), a no-serum control (4 wells) and two serum controls. Plates were incubated for 5 h at 37° C. to allow for NFκB-stimulated beta-lactamase production. LiveBLAzer™ FRET B/G Substrate (CCF4-AM) substrate was then added to assay. CCF4-AM is a Forster resonance energy transfer (FRET) based substrate for beta-lactamase developed by Invitrogen Corp. Once CCFA-AM enters a cell, it is converted to negatively charged CCF4 by endogenous esterases. Excitation of this substrate at 409 nm leads to efficient FRET between the coumarin and fluorescein moieties, resulting in a green fluorescence detectable at 530 nm. The presence of beta-lactamase leads to cleavage of CCF4 and results in a loss of FRET, resulting in a robust blue fluorescent signal detectable at 460 nm. Thus, activity of beta-lactamase (a marker of NFκB-promoter activity) is measured as a product to substrate ratio (blue/green fluorescence ratio: 460 nm/530 nm). The determination of inflammatory index has a within-plate CV of 2.1% and a between-plate CV of 8.9% This comparative study was conducted according to the assay method set out in the example at Section 2.4 above.

red blood cells (RBC) = experiment: Peroxyl radical (AAPH)-induced red blood cell lysis; format: cell-based
Method: Freshly collected heparinised venous blood (10 ml, on ice) was aliquotted into 1.8 ml sterile Eppendorf tubes and centrifuged for 10 minutes at 2600 rpm at 4° C. Plasma and buffy coat layers were removed (approximately […]) and packed red blood cells (RBC) were then washed by the addition of […], ice cold PBS. This washing procedure was repeated twice. Packed RBC were resuspended by the addition of 900 ml of ice-cold, sterile PBS (and termed RBC stock). RBC stocks were stored at 4° C. for a maximum of three days. All working suspensions of RBC were prepared fresh daily by diluting […] of RBC stock into 10 ml of ice-cold, sterile PBS and […] added to each well.
Stocks of AAPH were freshly prepared for individual experiments as follows. AAPH (1.22 gm) was dissolved in 7.5 ml of PBS to yield a 4× stock at 600 mM and […] aliquots (final concentration of 150 mM) were then added to each well to initiate the lysis assay. Stock solutions of test compounds (40 mM in 100% DMSO) were diluted in sterile PBS to yield final concentrations of […] per well. Appropriate controls were included in each experiment. All compound dilutions were adjusted to give final DMSO concentrations in each well of 0.25%. Peroxy-induced RBC lysis assays were performed in 96-flat bottom well microtitre plates with a total volume of […] per well. Turbidity of RBC suspensions were monitored using a Tecan microplate reader at 690 nm (37° C.) with gentle vortexing. Assays were performed in quadruplicate and readings were taken every 5 minutes over 5 hours. RBC lysis curves were constructed by plotting absorbance (mean of 4 readings) against time. Time to half-lysis was calculated by taking the highest absorbance reading (no lysis) and the lowest absorbance reading (maximum lysis). The sum of these two readings divided by two gave the absorbance at half-lysis. Simple regression analysis was used to calculate the time at which half-lysis absorbance occurred.
This comparative study was conducted according to the assay method set out in the example at Section 3.3 above.

[6] = 20 minutes, absorbance 517 nm, Table 4

EC50 [2, 6]	PPARγ activation, increase in beta-lactamase activity over media only control [3]	IC50 (CP70)	IC50 (HPAC)	IC50 (MM200)	EC50 ([2]; comparative, Table 13)	SMILES	mean change of LPS-induced TNFα synthesis [1]	activity against CP70, HPAC and MM200 cell lines (cancer cell lines)	mean change of LPS-induced NO synthesis [4]	NFκB inhibition [5]	free radical scavenging / antioxidant activity in DPPH screen ([2]; 100 μM, ΔAbs>0.3 criterion)	antioxidant activity, AAPH-induced time to half-lysis of red blood cells (red blood cells (RBC))	Time taken to reach half-lysis, time (red blood cells (RBC); test compounds at 10 μM, vehicle 40.0, comparative, Table 14)
24 µM	PPARγ agonist activity	5.08 ± 1.5 µM	9.64 ± 3.6 µM	11.3 ± 0.2 µM	–	COc1ccc(CN2COc3cc4c(cc3C2)C=C(c2ccc(O)cc2)CO4)cc1 [Compound 6, 4-(3-(4-Methoxybenzyl)-2,3,4,8-tetrahydrochromeno[6,7-e][1,3]oxazin-7-yl)phenol]	greatest inhibition	active	–	–	–	–	–
21 µM	PPARγ agonist activity	–	–	–	–	Cc1cccc(N2COc3cc4c(cc3C2)C=C(c2ccc(O)cc2)CO4)c1 [Compound 22, 4-(3-m-Tolyl-2,3,4,8-tetrahydrochromeno[6,7-e][1,3]oxazin-7-yl)phenol]	greatest inhibition	–	greatest inhibition	–	–	–	–
–	–	–	–	–	> 100 µM	O=c1c(-c2ccc(O)cc2)coc2cc(O)cc(O)c12 [genistein, reference compound]	–	–	–	inhibited NFκB	no antioxidant activity	delaying the AAPH-induced time to half-lysis	93.8 min
22.5 µM	–	–	–	–	–	CN1COc2cc3c(cc2C1)C=C(c1ccc(O)cc1)CO3 [Compound 4, 4-(3-methyl-2,3,4,8-tetrahydrochromeno[6,7-e][1,3]oxazin-7-yl)phenol]	greatest inhibition	–	greatest inhibition	–	–	–	–
